“Also recorded” adds a separate entry of the source.
What was measured:
Dahl salt-sensitive rats [1] = test: Dahl salt-sensitive rat heart failure model, 8% NaCl high-salt diet (Example 1); assay type: in vivo; details: 8% NaCl HS diet
From the text: To determine the therapeutic potential of miR-208a inhibition in vivo, we designed an antimiR targeting bases 2 to 17 of the 5′ region of mature miR-208a and containing a combination of LNA and DNA linked by phosphorothioate bonds. The sequence of the antimiR-208a, which is referred to as M-10101, was 5′-[…]-3′ (SEQ ID NO: 12). To test the therapeutic relevance of miR-208a inhibition, we used Dahl salt-sensitive rats that were either fed a low-salt (LS) diet (0.25% NaCl) or a high-salt (HS) diet (8.0% NaCl) starting at 8 weeks of age. Initiation of an HS diet in Dahl salt-sensitive rats results in chronic hypertension, which progresses to a model of congestive heart failure associated primarily with diastolic dysfunction (Rodenbaugh et al. (2007) Am J Physiol Heart Circ Physiol. 293, H1705-H1713). After one week on the HS diet, rats were administered saline, 25 mg/kg antimiR-208a, or 25 mg/kg scrambled control oligo subcutaneously every two weeks. […] As an indication of health, we monitored body weight during the duration of the study.
The LNA-antimiR oligonucleotides were synthesized at miRagen Therapeutics, Inc. as unconjugated and fully phosphorothiolated oligonucleotides perfectly complementary to the 5′ region of the mature miR-208a sequence. The LNA control oligonucleotide consisted of a sequence directed against a C. elegans specific miRNA. […]

Dahl salt-sensitive rats [2] = test: Dahl salt-sensitive rat model, 4% NaCl diet: body weight, echocardiography, histology (Example 1); assay type: in vivo; details: 4% NaCl HS diet
Protocol: To obtain additional insight into the basis for the protective effects seen in response to antimiR-208a, subsequent studies were done using a 4.0% NaCl diet, during which the rats received saline, 5 or 25 mg/kg of antimiR-208a, or 25 mg/kg of antimiR control every 2 weeks.
The LNA-antimiR oligonucleotides were synthesized at miRagen Therapeutics, Inc. as unconjugated and fully phosphorothiolated oligonucleotides perfectly complementary to the 5′ region of the mature miR-208a sequence. The LNA control oligonucleotide consisted of a sequence directed against a C. elegans specific miRNA. Unless otherwise indicated, in vivo delivery of the oligonucleotide chemistries was achieved by low pressure intravenous (i.v.) injections via the tail vein or subcutaneous injections of either adult male C56B16 mice or adult male Dahl Salt-sensitive rats (Harlan, Indianapolis). […] Tissue samples were collected at the indicated timepoints for molecular or histological examination. Dahl rats were maintained on 0.25 NaCl or placed on 4% or 8% NaCl diet at 8 weeks of age (Harlan, Indianapolis).

[3] = system: miR-499, miR-208b, Myh6, Myh7, Myh7b, HP1β; test: Cardiac tissue markers by real-time PCR, Northern and Western blot, 4% NaCl diet (Example 1); assay type: in vivo, rat; details: 4% NaCl HS diet
From the text: This regulation of miR-499 and miR-208b was confirmed by Northern blot analysis (FIG. 2B).
To assess the regulation of the myosin host genes, we examined Myh6, Myh7, and Myh7b mRNA levels.
For in vivo real-time PCR analysis, RNA was extracted from cardiac tissue using Trizol (Invitrogen) after which two μg RNA from each tissue sample was used to generate cDNA using Super Script II reverse transcriptase per manufacturer's specifications (Invitrogen). To detect the level of miR-208 RT-PCR was performed using the Taqman MicroRNA assay (Applied Biosystems, ABI) according the manufacturer's recommendations, using 10-100 ng of total RNA. The expression of a subset of genes was analyzed by quantitative real time PCR using Taqman probes purchased from ABI.
Total RNA was isolated from cardiac tissue samples by using Trizol reagent (Gibco/BRL). Northern blots to detect microRNAs were performed as described previously described. A U6 probe served as a loading control (IDT). 10 μg of total RNA from cardiomyocytes or heart tissue was loaded on 20% acrylamide denaturing gels and transferred to Zeta-probe GT genomic blotting membranes (Bio-Rad) by electrophoresis. After transfer, the blots were cross-linked and baked at 80° C. for 1 hr. To maximize the sensitivity of miRNA detection, oligonucleotide probes were labeled with the Starfire Oligos Kit (IDT, Coralville, Iowa) and α-^32P dATP (Amersham or Perkin Elmer). Probes were hybridized to the membranes overnight at 39° C. in Rapid-hyb buffer (Amersham), after which they were washed twice for 10 minutes at 39° C. with 0.5×SSC containing 0.1% SDS. The blots were exposed and quantified by PhosphorImager analysis (GE HealthCare Life Sciences) and a U6 probe served as a loading control (ABI). The intensity of the radioactive signal was used to quantify the fold change in expression using a phosphorimager and ImageQuant (Bio-Rad).
Western blot analysis. For Western blot analysis, Myosin was extracted from cardiac cells or tissue as described (H-amalainen, N. & Pette, D. Patterns of myosin isoforms in mammalian skeletal muscle fibres. Microsc Res Tech 30, 381-389 (1995)). MHC isoforms were detected by loading 0.1 ug protein lysate on a 4-15% gradient gel and separated by SDS PAGE and Western blotting was performed with mouse monoclonal anti-myosin (slow, skeletal M8421) (Sigma, Mo.), which is highly specific for Myh7.

miR-208a, Myh6, Myh7 = test: Cardiac tissue markers by Taqman RT-PCR, 4% NaCl diet (Example 2); assay type: in vivo, rat; details: 25 mg/kg sc every 2 weeks
Protocol: The flowing experimental groups were tested:
Following catheter implant surgery, high-salt diet was initiated. […] Animals were sacrificed 8 weeks after the initial injection.
Tissue RNA was isolated using standard Trizol RNA isolation.

[4] = 8 weeks, histological quantification, listed as antimiR-208a
[5] = 8 weeks after HS diet, vs HS/saline, listed as antimiR-208a
[6] = real-time PCR, Northern blot, listed as anti-miR-208a
[7] = real-time PCR, listed as AntimiR-208a
[8] = real-time PCR, listed as anti-miR-208a
[9] = listed as antimiR-208a, 25 mg/kg

With “M-10101: antimiR targeting bases 2 to 17 of mature miR-208a, LNA and DNA linked by phosphorothioate bonds; 5′-CTTTTTGCTCGTCTTA-3′ (SEQ ID NO: 12) (all phosphorothioate, sugars by position and methylation of C not given here; LNA/DNA mixmer; listed as Homo sapiens)” the Food intake (Dahl salt-sensitive rats [1]) was “comparable ingestion between all HS-fed groups”, the “Survival (Kaplan-Meier)” value (Dahl salt-sensitive rats [1]; 25 mg/kg sc every 2 weeks starting 1 week after HS diet, listed as antimiR-208a, 25 mg/kg) was “significantly alleviated these symptoms; also recorded: significantly improved” and the “Cardiomyocyte hypertrophy (cardiomyocyte size)” value (Dahl salt-sensitive rats [2]; [4]) was “significant reduction in cardiomyocyte hypertrophy; also recorded: significantly less hypertrophy”. For the same substance, the “Periarteriolar (perivascular) fibrosis, Picrosirius Red staining” value (Dahl salt-sensitive rats [2]; [4]) was “reduced periarteriolar fibrosis; also recorded: significantly less hypertrophy and fibrosis”, the Body weight gain (Dahl salt-sensitive rats [2]; 5 or 25 mg/kg every 2 weeks, listed as antimiR-208a) was “maintained their increase in weight gain; also recorded: sufficient to maintain weight gain comparable to that in animals on a normal diet” and the “Isovolumic relaxation time (IVRT), echocardiography” value (Dahl salt-sensitive rats [2]; [5]) was “significant dose-dependent reduction; also recorded: significantly improved”. For the same substance, the “Mitral valve early to active filling velocity ratio (MV E/A)” value (Dahl salt-sensitive rats [2]; [5]) was “normalization; also recorded: significantly improved”, the “Isovolumic relaxation time, time-dependent echocardiography” value (Dahl salt-sensitive rats [2]; every 2 weeks after HS diet, vs HS/saline, data not shown) was “significant reductions in isovolumic relaxation time” and the “HP1β (miR-208a target) protein, Western blot” value ([3]; listed as anti-miR-208a) was “target depression”. The “Myh7 protein, Western blot of ventricular tissue” value ([3]; listed as anti-miR-208a) was “dose-dependent regulation of Myh7 was confirmed”, the “Myh7 protein, Western blot of ventricular tissue” value ([3]; listed as antimiR-208a) was “dose-dependent reduction” and the “miR-208b level in cardiac tissue” value [3, 6] was “dose-dependent decrease in miR-208b levels”. The “miR-499 expression in cardiac tissue” value [3, 6] was “dose-dependent decrease in expression; also recorded: dose-dependent reduction in miR-499”, the “miR-208b level in cardiac tissue” value ([3]; real-time PCR, Northern blot, listed as antimiR-208a) was “significantly blunts this response” and the “Myh6 mRNA in cardiac tissue” value [3, 7] was “dose-dependently increases Myh6 expression”. The “Myh7b mRNA in cardiac tissue” value [3, 7] was “reduces Myh7b expression”, the “Myh7 mRNA (HS diet-induced increase) in cardiac tissue” value [3, 7] was “dose-dependently reduced” and the “Myh6 mRNA in cardiac tissue” value [3, 8] was “normalized the decreased expression”. For the same substance, the “Myh7b mRNA in cardiac tissue” value [3, 8] was “dose-dependent reduction”, the “Myh7 mRNA (HS diet-induced increase) in cardiac tissue” value [3, 8] was “dose-dependently blunted” and the “Myh7 expression in cardiac tissue” value (miR-208a, Myh6, Myh7; listed as AntimiR-208a, 25 mg/kg) was “blunted the hypertension-induced increase in Myh7 expression”. The “Myh6 expression in cardiac tissue” value (miR-208a, Myh6, Myh7; [9]) was “prevented the high-salt diet-induced decrease in Myh6 expression; also recorded: prevents this decrease”, the “Myh7 expression in cardiac tissue” value (miR-208a, Myh6, Myh7; [9]) was “reduces this increase” and the “miR-208a in cardiac tissue” value (miR-208a, Myh6, Myh7; vs HS/Saline) was “greater inhibition of miR-208a”.

From patent US20140024700A1, “BLOOD-BORNE MIRNAS AS SURROGATE MARKERS OF DRUG EFFICACY FOR CARDIAC CONDITIONS” (miRagen Therapeutics, Inc., priority 2010, published 2014)
